Test results published in ChEMBL document CHEMBL3813659 (Bioorg Med Chem, 2016).

Legend:
[1] = biological target: T1, Oxytocin receptor (Homo sapiens, UniProt P30559); test: Agonist activity at human oxytocin receptor expressed in CHO cells assessed as increase in intracellular calcium flux measured for 90 sec by fluo-4 dye based FLIPR assay; type: functional, cell-based
T1 sequence (P30559 whole entry): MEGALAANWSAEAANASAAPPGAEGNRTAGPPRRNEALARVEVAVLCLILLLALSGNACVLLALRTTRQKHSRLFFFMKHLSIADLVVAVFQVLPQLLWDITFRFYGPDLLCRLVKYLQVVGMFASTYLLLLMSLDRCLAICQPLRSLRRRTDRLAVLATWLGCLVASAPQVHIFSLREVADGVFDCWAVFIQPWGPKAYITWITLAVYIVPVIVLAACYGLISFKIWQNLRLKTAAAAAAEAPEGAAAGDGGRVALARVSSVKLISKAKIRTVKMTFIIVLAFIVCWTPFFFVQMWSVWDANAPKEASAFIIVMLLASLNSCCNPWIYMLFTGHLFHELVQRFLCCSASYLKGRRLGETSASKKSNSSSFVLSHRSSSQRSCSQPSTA

[2] = biological target: T2, Oxytocin receptor (Homo sapiens) (UniProt P30559); test: Intrinsic agonist activity at human oxytocin receptor expressed in CHO cells assessed as increase in intracellular calcium flux measured for 90 sec by fluo-4 dye based FLIPR assay relative to control; type: functional, cell-based
T2 sequence (whole entry): T1 sequence (P30559 whole entry)

[3] = biological target: T1, Oxytocin receptor; test: Displacement of [3H]8-arginine-vasopressin from human oxytocin receptor expressed in CHO cell membrane incubated for 1 hr by liquid scintillation counting method; type: cell membranes

Compound	EC50 [1] [nM]	Intrinsic activity [2] [%]	Ki [3] [nM]
CC[C@H](C)[C@@H]1NC(=O)[C@H](Cc2ccc(O)cc2)N(C)C(=O)[C@@H](N)CSSC[C@@H](C(=O)N2CCC[C@H]2C(=O)N[C@@H](CC(C)C)C(=O)NCC(N)=O)NC(=O)[C@H](CC(N)=O)NC(=O)[C@H](CCC(N)=O)NC1=O	23.9	98	6.76
CC[C@H](C)[C@@H]1NC(=O)[C@H](Cc2ccc(O)cc2)NC(=O)[C@@H](N)CSSC[C@@H](C(=O)N2CCC[C@H]2C(=O)N[C@@H](CC(C)C)C(=O)NCC(N)=O)NC(=O)[C@H](CC(N)=O)NC(=O)[C@H](CCC(N)=O)N(C)C1=O	> 1000	–	> 1010
CC[C@H](C)[C@@H]1NC(=O)[C@H](Cc2ccc(O)cc2)NC(=O)[C@@H](N)CSSC[C@@H](C(=O)N2CCC[C@H]2C(=O)N[C@@H](CC(C)C)C(=O)N(C)CC(N)=O)N(C)C(=O)[C@H](CC(N)=O)NC(=O)[C@H](CCC(N)=O)NC1=O	10.8	90	34.3
CC[C@H](C)[C@H]1C(=O)N[C@@H](CCC(N)=O)C(=O)N[C@@H](CC(N)=O)C(=O)N(C)[C@H](C(=O)N2CCC[C@H]2C(=O)N[C@@H](CC(C)C)C(=O)NCC(N)=O)CSSCCC(=O)N[C@@H](Cc2ccc(O)cc2)C(=O)N1C	> 1000	–	–
CC[C@H](C)[C@H]1C(=O)N[C@@H](CCC(N)=O)C(=O)N[C@@H](CC(N)=O)C(=O)N(C)[C@H](C(=O)N2CCC[C@H]2C(=O)N[C@@H](CC(C)C)C(=O)NCC(N)=O)CSSC[C@H](N)C(=O)N[C@@H](Cc2ccc(O)cc2)C(=O)N1C	283	94	–
CC[C@H](C)[C@@H]1NC(=O)[C@H](Cc2ccc(O)cc2)NC(=O)[C@@H](N)CSSC[C@@H](C(=O)N2CCC[C@H]2C(=O)N[C@@H](CC(C)C)C(=O)NCC(N)=O)NC(=O)[C@H](CC(N)=O)NC(=O)[C@H](CCC(N)=O)NC1=O	–	102	–
CC[C@H](C)[C@@H]1NC(=O)[C@H](Cc2ccc(O)cc2)NC(=O)[C@@H](N)CSSC[C@@H](C(=O)N2CCC[C@H]2C(=O)N[C@@H](CC(C)C)C(=O)NCC(N)=O)NC(=O)[C@H](CC(N)=O)N(C)C(=O)[C@H](CCC(N)=O)NC1=O	26	100	31.5
CC[C@H](C)[C@@H]1NC(=O)[C@H](Cc2ccc(O)cc2)N(C)C(=O)[C@@H](N)CSSC[C@@H](C(=O)N2CCC[C@H]2C(=O)N[C@@H](CC(C)C)C(=O)NCC(N)=O)N(C)C(=O)[C@H](CC(N)=O)NC(=O)[C@H](CCC(N)=O)NC1=O	6.98	78	–
CC[C@H](C)[C@@H]1NC(=O)[C@H](Cc2ccc(O)cc2)NC(=O)CCSSC[C@@H](C(=O)N2CCC[C@H]2C(=O)N[C@@H](CC(C)C)C(=O)NCC(N)=O)NC(=O)[C@H](CC(N)=O)NC(=O)[C@H](CCC(N)=O)NC1=O	–	106	0.33
CC[C@H](C)[C@@H]1NC(=O)[C@H](Cc2ccc(O)cc2)N(C)C(=O)CCSSC[C@@H](C(=O)N2CCC[C@H]2C(=O)N[C@@H](CC(C)C)C(=O)NCC(N)=O)N(C)C(=O)[C@H](CC(N)=O)NC(=O)[C@H](CCC(N)=O)NC1=O	7.98	97	–
CC[C@H](C)[C@@H]1NC(=O)[C@H](Cc2ccc(O)cc2)NC(=O)[C@@H](N)CSSC[C@@H](C(=O)N2CCC[C@H]2C(=O)N(C)[C@@H](CC(C)C)C(=O)NCC(N)=O)N(C)C(=O)[C@H](CC(N)=O)NC(=O)[C@H](CCC(N)=O)NC1=O	15.6	83	68.5
CC[C@H](C)[C@H]1C(=O)N[C@@H](CCC(N)=O)C(=O)N[C@@H](CC(N)=O)C(=O)N[C@H](C(=O)N2CCC[C@H]2C(=O)N[C@@H](CC(C)C)C(=O)NCC(N)=O)CSSC[C@H](N)C(=O)N[C@@H](Cc2ccc(O)cc2)C(=O)N1C	14.7	100	113
CC[C@H](C)[C@@H]1NC(=O)[C@H](Cc2ccc(O)cc2)NC(=O)[C@@H](NC)CSSC[C@@H](C(=O)N2CCC[C@H]2C(=O)N[C@@H](CC(C)C)C(=O)NCC(N)=O)N(C)C(=O)[C@H](CC(N)=O)NC(=O)[C@H](CCC(N)=O)NC1=O	175	81	98.6

More lines, in order of falling EC50 [1], values ahead:

EC50 [1] [nM]	Intrinsic activity [2] [%]	Ki [3] [nM]	Compound
5.52	96	10.7	CC[C@H](C)[C@@H]1NC(=O)[C@H](Cc2ccc(O)cc2)NC(=O)[C@@H](N)CSSC[C@@H](C(=O)N2CCC[C@H]2C(=O)N(C)[C@@H](CC(C)C)C(=O)N(C)CC(N)=O)NC(=O)[C@H](CC(N)=O)NC(=O)[C@H](CCC(N)=O)NC1=O
4.77	102	5.47	CC[C@H](C)[C@@H]1NC(=O)[C@H](Cc2ccc(O)cc2)NC(=O)[C@@H](NC)CSSC[C@@H](C(=O)N2CCC[C@H]2C(=O)N[C@@H](CC(C)C)C(=O)NCC(N)=O)NC(=O)[C@H](CC(N)=O)NC(=O)[C@H](CCC(N)=O)NC1=O
4.23	86	–	CC[C@H](C)[C@@H]1NC(=O)[C@H](Cc2ccc(O)cc2)NC(=O)CCSSC[C@@H](C(=O)N2CCC[C@H]2C(=O)N(C)[C@@H](CC(C)C)C(=O)NCC(N)=O)N(C)C(=O)[C@H](CC(N)=O)NC(=O)[C@H](CCC(N)=O)NC1=O
2.41	84	–	CC[C@H](C)[C@@H]1NC(=O)[C@H](Cc2ccc(O)cc2)NC(=O)CCSSC[C@@H](C(=O)N2CCC[C@H]2C(=O)N[C@@H](CC(C)C)C(=O)N(C)CC(N)=O)N(C)C(=O)[C@H](CC(N)=O)NC(=O)[C@H](CCC(N)=O)NC1=O
0.99	95	1.05	CC[C@H](C)[C@@H]1NC(=O)[C@H](Cc2ccc(O)cc2)NC(=O)[C@@H](N)CSSC[C@@H](C(=O)N2CCC[C@H]2C(=O)N[C@@H](CC(C)C)C(=O)NCC(N)=O)N(C)C(=O)[C@H](CC(N)=O)NC(=O)[C@H](CCC(N)=O)NC1=O
0.59	86	–	CC[C@H](C)[C@@H]1NC(=O)[C@H](Cc2ccc(O)cc2)NC(=O)CCSSC[C@@H](C(=O)N2CCC[C@H]2C(=O)N(C)[C@@H](CC(C)C)C(=O)N(C)CC(N)=O)NC(=O)[C@H](CC(N)=O)NC(=O)[C@H](CCC(N)=O)NC1=O
0.52	97	0.97	CC[C@H](C)[C@@H]1NC(=O)[C@H](Cc2ccc(O)cc2)NC(=O)[C@@H](N)CSSC[C@@H](C(=O)N2CCC[C@H]2C(=O)N(C)[C@@H](CC(C)C)C(=O)NCC(N)=O)NC(=O)[C@H](CC(N)=O)NC(=O)[C@H](CCC(N)=O)NC1=O
0.47	102	1.32	CC[C@H](C)[C@@H]1NC(=O)[C@H](Cc2ccc(O)cc2)NC(=O)[C@@H](N)CSSC[C@@H](C(=O)N2CCC[C@H]2C(=O)N[C@@H](CC(C)C)C(=O)N(C)CC(N)=O)NC(=O)[C@H](CC(N)=O)NC(=O)[C@H](CCC(N)=O)NC1=O
0.29	84	–	CC[C@H](C)[C@@H]1NC(=O)[C@H](Cc2ccc(O)cc2)NC(=O)CCSSC[C@@H](C(=O)N2CCC[C@H]2C(=O)N[C@@H](CC(C)C)C(=O)NCC(N)=O)N(C)C(=O)[C@H](CC(N)=O)NC(=O)[C@H](CCC(N)=O)NC1=O
